Test results taken from US9782377B2, “Composition for normalization of infradian rhythm” (SUNTORY HOLDINGS LIMITED, priority 2003, dated 2017).

Test system: male Fischer rats
Test: Days until circadian rhythm synchronized after 6-hour backward/forward phase change of light-and-dark cycle
Type: in vivo, rat
Conditions: for days required for synchronization, backward movement of the phase: 6 hours backward; for days required for synchronization, forward movement of the phase: 6 hours forward

## CCCCC/C=C\C/C=C\C/C=C\C/C=C\CCCC(=O)OC(COC(=O)CCCCCCC)COC(=O)CCCCCCC [8A8, 1,3-capryloyl-2-arachidonoyl-glycerol]
Overall conclusion on ingestion of 8A8 versus control feed
  time (days) required for synchronization: shortened
Rats of 2 months age, 8A8-compounded feed (control feed group 3.7 days)
  days required for synchronization, backward movement of the phase: 4.1 days
Rats of 2 months age, 8A8-compounded feed (control feed group 9.8 days)
  days required for synchronization, forward movement of the phase: 9.43 days
Rats of 18 months age, 8A8-compounded feed (control feed group 7.28 days)
  days required for synchronization, backward movement of the phase: 5.72 days
Rats of 18 months age, 8A8-compounded feed (control feed group 5.63 days)
  days required for synchronization, forward movement of the phase: 3.32 days
